Read-outs that look alike come from different tables or passages of the source.
Molecular target: T1, LmxCLK1 (Leishmania mexicana, UniProt E9AMP2)
T1 sequence (E9AMP2 1-422): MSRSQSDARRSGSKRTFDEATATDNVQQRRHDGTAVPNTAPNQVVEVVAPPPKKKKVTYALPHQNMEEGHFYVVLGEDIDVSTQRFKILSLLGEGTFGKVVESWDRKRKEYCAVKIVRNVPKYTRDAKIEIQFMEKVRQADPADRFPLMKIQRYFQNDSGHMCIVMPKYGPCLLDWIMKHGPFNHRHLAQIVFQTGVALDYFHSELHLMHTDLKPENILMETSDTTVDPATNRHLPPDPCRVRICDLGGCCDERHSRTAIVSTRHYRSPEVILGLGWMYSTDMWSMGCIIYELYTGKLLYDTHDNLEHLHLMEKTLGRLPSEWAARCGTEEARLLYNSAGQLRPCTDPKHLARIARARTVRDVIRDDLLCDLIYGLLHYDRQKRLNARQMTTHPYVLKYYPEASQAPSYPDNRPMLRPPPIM
Assay: biochemical
Format: binding

[1] = DSF, 10 µM compound, 2 µM LmxCLK1, Run 1, read-out: ΔTm Run 1
[2] = DSF, 10 µM compound, 2 µM LmxCLK1, Run 2, read-out: ΔTm Run 2
[3] = DSF, 10 µM compound, 2 µM LmxCLK1, mean of two runs, read-out: ΔTm Average
[4] = DSF, 10 µM compound, 2 µM LmxCLK1, Run 1
[5] = DSF, 10 µM compound, 2 µM LmxCLK1, Run 2
[6] = DSF, 10 µM compound, 2 µM LmxCLK1, mean of two runs

Work on C=CC(=O)Nc1cc(Nc2nccc(-c3cn(C)c4ccccc34)n2)c(OC)cc1N(C)CCN(C)C [AZD9291] yielded a ΔTm at 10 µM [1] of 0 °C, a ΔTm at 10 µM [2] of -0.3 °C and a ΔTm at 10 µM [3] of -0.2 °C.
Compound NC(=O)c1ncn([C@@H]2O[C@H](CO)[C@@H](O)[C@H]2O)c1N [Acadesine] has a ΔTm at 10 µM [1] of -0.2 °C, a ΔTm at 10 µM [2] of -0.2 °C and a ΔTm at 10 µM [3] of -0.2 °C.
For CN(C)C/C=C/C(=O)Nc1cc2c(Nc3ccc(F)c(Cl)c3)ncnc2cc1O[C@H]1CCOC1 [Afatinib (BIBW2992)], the ΔTm at 10 µM [1] was 0.1 °C, the ΔTm at 10 µM [2] was -0.5 °C and the ΔTm at 10 µM [3] was -0.2 °C.
With COc1cc(Nc2ncc3c(n2)-c2ccc(Cl)cc2C(c2c(F)cccc2OC)=NC3)ccc1C(=O)O [Alisertib (MLN8237)] the ΔTm at 10 µM [1] was 0.1 °C, the ΔTm at 10 µM [2] was -0.3 °C and the ΔTm at 10 µM [3] was -0.1 °C.
With S=C(NCc1ccc2c(c1)OCO2)N1CCN(c2ncnc3c2oc2ccccc23)CC1 [Amuvatinib (MP-470)] the “ΔTm Run 1” value [4] was 0.1 °C, the “ΔTm Run 2” value [5] was 0.0 °C and the “ΔTm Average” value [6] was 0.1 °C.
For CCN1CCN(C(=O)Cc2ccc(Nc3ncc(F)c(Nc4ccc(C(=O)Nc5ccccc5Cl)cc4)n3)cc2)CC1 [Aurora A Inhibitor I], the “ΔTm Run 1” value [4] was 0.0 °C, the “ΔTm Run 2” value [5] was -0.1 °C and the “ΔTm Average” value [6] was -0.1 °C.
CNC(=O)c1ccccc1Sc1ccc2c(/C=C/c3ccccn3)n[nH]c2c1 [Axitinib] showed a ΔTm at 10 µM [1] of 0.6 °C, a ΔTm at 10 µM [2] of 0.4 °C and a ΔTm at 10 µM [3] of 0.5 °C.
COc1ccc(-c2ccc3ncc4c(c3c2)n(-c2ccc(N3CCNCC3)c(C(F)(F)F)c2)c(=O)n4C)cn1 [BGT226 (NVP-BGT226)] was tested, and the “ΔTm Run 1” value [4] was 0.9 °C, the “ΔTm Run 2” value [5] was 0.7 °C and the “ΔTm Average” value [6] was 0.8 °C.
In the case of CC(C)CCN1c2nc(Nc3cc(F)c(O)c(F)c3)ncc2N(C)C(=O)C1C (stereo not drawn) [BI-D1870], the “ΔTm Run 1” value [4] is reported as 0.4 °C, the “ΔTm Run 2” value [5] is reported as 0.0 °C and the “ΔTm Average” value [6] is reported as 0.2 °C.
Cc1ccc(-n2nc(C(C)(C)C)cc2NC(=O)Nc2ccc(OCCN3CCOCC3)c3ccccc23)cc1 [BIRB 796 (Doramapimod)] was tested, and the “ΔTm Run 1” value [4] was 0.5 °C, the “ΔTm Run 2” value [5] was 0.4 °C and the “ΔTm Average” value [6] was 0.4 °C.
In the case of CN(C)Cc1cccc(N/C(=C2\C(=O)Nc3cc(C(=O)N(C)C)ccc32)c2ccccc2)c1 [BIX 02189], the “ΔTm Average” value is reported as -0.3, the “ΔTm Run 1” value is reported as -0.2 and the “ΔTm Run 2” value is reported as -0.4.
With Nc1cc(C(F)(F)F)c(-c2cc(N3CCOCC3)nc(N3CCOCC3)n2)cn1 [BKM120 (NVP-BKM120)] the “ΔTm Run 1” value [4] was 0.1 °C, the “ΔTm Run 2” value [5] was 0.2 °C and the “ΔTm Average” value [6] was 0.1 °C.
With CCCCOc1c(C(=O)c2c(F)cc(C)cc2F)c[nH]c2nncc1-2 [BMS-265246] the ΔTm at 10 µM [1] was -0.1 °C, the ΔTm at 10 µM [2] was -0.3 °C and the ΔTm at 10 µM [3] was -0.2 °C.
With Cc1cc(N2CCOCC2)cc2[nH]c(-c3c(NC[C@@H](O)c4cccc(Cl)c4)cc[nH]c3=O)nc12 [BMS-536924] the “ΔTm Run 1” value [4] was 0.2 °C, the “ΔTm Run 2” value [5] was 0.1 °C and the “ΔTm Average” value [6] was 0.1 °C.
In the case of CCOc1ccn(-c2ccc(F)cc2)c(=O)c1C(=O)Nc1ccc(Oc2ccnc(N)c2Cl)c(F)c1 [BMS-777607], the ΔTm at 10 µM [1] is reported as 0.5 °C, the ΔTm at 10 µM [2] is reported as -0.2 °C and the ΔTm at 10 µM [3] is reported as 0.2 °C.
In the case of Nc1nccc(Oc2ccc(NC(=O)c3c[nH]cc(-c4ccc(F)cc4)c3=O)cc2F)c1Cl [BMS-794833], the ΔTm at 10 µM [1] is reported as -0.1 °C, the ΔTm at 10 µM [2] is reported as -0.4 °C and the ΔTm at 10 µM [3] is reported as -0.3 °C.
CC(C)c1cnn2c(NCc3ccccc3)cc(NCCCCCCN)nc12.Cl [BS-181 HCl] was tested, and the “ΔTm Run 1” value [4] was -0.3 °C, the “ΔTm Run 2” value [5] was -0.2 °C and the “ΔTm Average” value [6] was -0.3 °C.
O=C(NCCCNc1nc(Nc2cccc(NC(=O)N3CCCC3)c2)ncc1I)c1cccs1 [BX-795] gave a ΔTm at 10 µM [1] of -0.1 °C, a ΔTm at 10 µM [2] of 0.4 °C and a ΔTm at 10 µM [3] of 0.2 °C.
O=C(Nc1cccc(Nc2ncc(Br)c(NCCc3cnc[nH]3)n2)c1)N1CCCC1 [BX-912] was tested, and the “ΔTm Run 1” value [4] was 0.2 °C, the “ΔTm Run 2” value [5] was 0.2 °C and the “ΔTm Average” value [6] was 0.2 °C.
Cc1nc(NC(=O)N2CCC[C@H]2C(N)=O)sc1-c1ccnc(C(C)(C)C(F)(F)F)c1 [BYL719] was tested, and the ΔTm at 10 µM [1] was 0.1 °C, the ΔTm at 10 µM [2] was 0.2 °C and the ΔTm at 10 µM [3] was 0.2 °C.
In the case of CCN(CCO)CCCOc1ccc2c(Nc3cc(CC(=O)Nc4cccc(F)c4)[nH]n3)ncnc2c1 [Barasertib (AZD1152-HQPA)], the “ΔTm Run 1” value [4] is reported as 0.4 °C, the “ΔTm Run 2” value [5] is reported as -0.1 °C and the “ΔTm Average” value [6] is reported as 0.1 °C.
COC(=O)[C@]12CCC(C)(C)C[C@H]1[C@H]1C(=O)C=C3[C@@]4(C)C=C(C#N)C(=O)C(C)(C)[C@@H]4CC[C@@]3(C)[C@]1(C)CC2 [Bardoxolone Methyl] gave a ΔTm at 10 µM [1] of 0.6 °C, a ΔTm at 10 µM [2] of 0.5 °C and a ΔTm at 10 µM [3] of 0.5 °C.
In the case of Cc1cc2c(F)c(Oc3ncnn4cc(OC[C@@H](C)OC(=O)[C@H](C)N)c(C)c34)ccc2[nH]1 [Brivanib Alaninate (BMS-582664)], the “ΔTm Run 1” value [4] is reported as 0.3 °C, the “ΔTm Run 2” value [5] is reported as 0.1 °C and the “ΔTm Average” value [6] is reported as 0.2 °C.
For NC1(Cc2ccc(Cl)cc2)CCN(c2ncnc3[nH]ccc23)CC1 [CCT128930], the “ΔTm Run 1” value [4] was 0.8 °C, the “ΔTm Run 2” value [5] was 0.6 °C and the “ΔTm Average” value [6] was 0.7 °C.
